{"source": "paper PMC6444592", "about": "“Citrullination of HP1γ chromodomain affects association with chromatin” (Epigenetics & Chromatin, 2019)", "key": {"methylated H3K9": {"tested_on": "methylated H3K9", "conditions": "at gene promoters; cited from earlier work", "description": "It is possible that PADI4 targets both H3R8 and HP1γ bound to the same H3N-terminal tail. The Nanog gene may represent an important example of such a locus, since chromatin immunoprecipitation experiments have shown that both HP1γ and PADI4 bind to its promoter and regulate gene expression in stem cells."}, "histone H3": {"tested_on": "histone H3", "assay": "citrullination of histone H3 by PADI4", "type": "biochemical", "conditions": "calcium, anti-H3R2-citrulline and Pan-Cit immunoblot", "procedure": "For immunoblotting, cells were lysed in 2 × Laemmli buffer and sonicated in a water bath (Fisherbrand) for 3 min to shear genomic DNA, spun down at full speed in a microfuge for 15 min and incubated for 5 min at 95 °C. Proteins were resolved by SDS-PAGE, transferred to nitrocellulose membrane (Millipore) using wet transfer (transfer buffer: 192 mM glycine, 25 mM Tris.HCl pH8.8) and incubated in blocking solution (5% BSA in TBS containing 0.5% Tween-20 for citrulline sensitive antibodies and 5% non-fat milk powder in TBS containing 0.1% Tween-20 for all other antibodies) for 1 h at room temperature (RT). Membranes were incubated with primary antibody at 4 °C o/n and appropriate HRP-conjugated secondary antibody for 1 h at RT. Membranes were then incubated for enhanced chemiluminescence (ECL, Promega), and proteins were detected by exposure to X-ray film or using the ChemiDoc™ MP imaging system (Bio-Rad). Images were quantified using ImageJ analysis software. Primary antibodies diluted in blocking solution were used to detect citrullinated histone H3R2 (H3R2-Cit, Abcam ab176843 at 1:1000 dilution), HP1γ (Millipore 05-690 MAB clone 42s2 [16] at 1:1000 dilution), β-Tubulin (Abcam ab6046 at 1:1000 dilution) and peptidyl-citrulline (Millipore MABN328, clone F95 [48] at 1:1000 dilution). […]"}, "H1.2": {"tested_on": "H1.2", "conditions": "reprogramming and ground state pluripotent stem cells; cited from earlier work", "description": "We previously identified a role for PADI4 during reprogramming and ground state pluripotent stem cells, where the deiminase regulates key pluripotency genes via a mechanism involving citrullination of H1.2. […] Here, we report that the chromodomain of HP1γ is also citrullinated in mESCs, at R38 and R39. […] Furthermore, mutations in HP1γ designed to mimic the loss of charge caused by citrullination inhibit binding ..."}}}
{"substance": "Peptidylarginine deiminase 4 [PADI4]", "values": [{"measurement": "effect of H3R8 citrullination on HP1 binding to adjacent methylated H3K9", "setting": "methylated H3K9", "result": "reduces the binding affinity of HP1 to adjacent methylated H3K9"}, {"measurement": "enzymatic activity of recombinant PADI4 on histone H3", "setting": "histone H3", "result": "confirmed by citrullination of histone H3"}, {"measurement": "effect of H1.2 citrullination", "setting": "H1.2", "result": "eviction from chromatin and global chromatin decompaction"}]}
